From the supplement of paper PMC10307832

How the values were obtained:
Experiment in all cases: relative viability (nuclei count vs DMSO), 5 days (fraction); higher = more cells survive
Bleomycin + Palbociclib = compound: CC1=C(N=C(N=C1N)[C@H](CC(=O)N)NC[C@@H](C(=O)N)N)C(=O)N[C@@H]([C@H](C2=CN=CN2)OC3C(C(C(C(O3)CO)O)O)OC4C(C(C(C(O4)CO)O)OC(=O)N)O)C(=O)N[C@H](C)[C@H]([C@H](C)C(=O)N[C@@H]([C@@H](C)O)C(=O)NCCC5=NC(=CS5)C6=NC(=CS6)C(=O)NCCC[S+](C)C)O [Bleomycin] + CC(=O)c1c(C)c2cnc(Nc3ccc(N4CCNCC4)cn3)nc2n(C2CCCC2)c1=O [Palbociclib] (partner 0.5 µM); details: main component drawn
Summary of the method: (§1)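 Each reported value is a median over duplicate plates. It expresses relative viability: treated-well nuclei count divided by vehicle-well nuclei count. Lung cancer cell lines in 1536-well plates were dosed by pin tool a day after seeding, alone with one drug or with a fixed anchor-drug dose plus five library-drug doses (not always all listed) in √10 steps, and nuclei were counted after 5 days.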

Bleomycin + Navitoclax = compound: CC1=C(N=C(N=C1N)[C@H](CC(=O)N)NC[C@@H](C(=O)N)N)C(=O)N[C@@H]([C@H](C2=CN=CN2)OC3C(C(C(C(O3)CO)O)O)OC4C(C(C(C(O4)CO)O)OC(=O)N)O)C(=O)N[C@H](C)[C@H]([C@H](C)C(=O)N[C@@H]([C@@H](C)O)C(=O)NCCC5=NC(=CS5)C6=NC(=CS6)C(=O)NCCC[S+](C)C)O [Bleomycin] + CC1(C)CCC(c2ccc(Cl)cc2)=C(CN2CCN(c3ccc(C(=O)NS(=O)(=O)c4ccc(N[C@H](CCN5CCOCC5)CSc5ccccc5)c(S(=O)(=O)C(F)(F)F)c4)cc3)CC2)C1 [Navitoclax] (partner 0.5 µM); details: main component drawn
Summary of the method: as §1

Etoposide + Crizotinib = compound: COc1cc([C@@H]2c3cc4c(cc3[C@@H](O[C@@H]3O[C@@H]5CO[C@@H](C)O[C@H]5[C@H](O)[C@H]3O)[C@H]3COC(=O)[C@H]23)OCO4)cc(OC)c1O [Etoposide] + C[C@@H](Oc1cc(-c2cnn(C3CCNCC3)c2)cnc1N)c1c(Cl)ccc(F)c1Cl [Crizotinib] (partner 1 µM)
Summary of the method: as §1

Etoposide + Linsitinib = compound: COc1cc([C@@H]2c3cc4c(cc3[C@@H](O[C@@H]3O[C@@H]5CO[C@@H](C)O[C@H]5[C@H](O)[C@H]3O)[C@H]3COC(=O)[C@H]23)OCO4)cc(OC)c1O [Etoposide] + C[C@]1(O)C[C@@H](c2nc(-c3ccc4ccc(-c5ccccc5)nc4c3)c3c(N)nccn32)C1 [Linsitinib] (partner 1 µM)
Summary of the method: as §1

Row | Cell Line | relative viability (Bleomycin + Palbociclib; first compound 0.01 µM) | relative viability (Bleomycin + Palbociclib; first compound 0.03162 µM) | relative viability (Bleomycin + Palbociclib; first compound 0.1 µM) | relative viability (Bleomycin + Palbociclib; first compound 0.3162 µM) | relative viability (Bleomycin + Palbociclib; first compound 1 µM) | relative viability (Bleomycin + Navitoclax; first compound 0.01 µM) | relative viability (Bleomycin + Navitoclax; first compound 0.03162 µM) | relative viability (Bleomycin + Navitoclax; first compound 0.1 µM) | relative viability (Bleomycin + Navitoclax; first compound 0.3162 µM) | relative viability (Bleomycin + Navitoclax; first compound 1 µM) | relative viability (Etoposide + Crizotinib; first compound 0.01 µM) | relative viability (Etoposide + Crizotinib; first compound 0.03162 µM) | relative viability (Etoposide + Crizotinib; first compound 0.1 µM) | relative viability (Etoposide + Crizotinib; first compound 0.3162 µM) | relative viability (Etoposide + Crizotinib; first compound 1 µM) | relative viability (Etoposide + Linsitinib; first compound 0.01 µM) | relative viability (Etoposide + Linsitinib; first compound 0.03162 µM) | relative viability (Etoposide + Linsitinib; first compound 0.1 µM) | relative viability (Etoposide + Linsitinib; first compound 0.3162 µM) | relative viability (Etoposide + Linsitinib; first compound 1 µM)
1 | HCC-15 | 0.711 | 0.686 | 0.648 | 0.343 | 0.285 | 0.656 | 0.68 | 0.713 | 0.378 | 0.324 | 0.799 | 0.821 | 0.856 | 0.342 | 0.125 | 0.892 | 0.903 | 0.755 | 0.396 | 0.16
2 | HCC-44 | 0.861 | 0.821 | 0.64 | 0.455 | 0.382 | 0.674 | 0.323 | 0.278 | 0.161 | 0.191 | 0.82 | 0.807 | 0.812 | 0.696 | 0.351 | 0.61 | 0.745 | 0.729 | 0.535 | 0.267
3 | HCC-78 | 0.522 | 0.533 | 0.412 | 0.4 | 0.463 | 0.463 | 0.439 | 0.387 | 0.326 | 0.278 | 0.31 | 0.334 | 0.241 | 0.227 | 0.181 | 0.436 | 0.525 | 0.255 | 0.322 | 0.181
4 | HCC-366 | 0.19 | 0.155 | 0.106 | 0.0548 | 0.0409 | 0.74 | 0.489 | 0.268 | 0.0573 | 0.0178 | 0.43 | 0.434 | 0.217 | 0.0627 | 0.0226 | 0.474 | 0.678 | 0.337 | 0.166 | 0.0566
5 | IA-LM | – | – | – | – | – | 0.498 | 0.673 | 0.611 | 0.28 | 0.205 | 0.749 | 1.15 | 0.475 | 0.73 | 0.698 | 0.584 | 0.596 | 0.348 | 0.506 | 0.527
6 | LCLC-103H | 0.501 | 0.525 | 0.547 | 0.373 | 0.43 | – | – | – | – | – | 1.09 | 1.02 | 0.984 | 1.06 | 0.988 | 0.998 | 1.12 | 0.93 | 1.02 | 0.902
7 | NCI-H358 | 0.142 | 0.178 | 0.115 | 0.133 | 0.111 | – | – | – | – | – | 0.689 | 0.441 | 0.518 | 0.261 | 0.139 | 0.622 | 0.792 | 0.561 | 0.202 | 0.181
8 | NCI-H522 | 0.904 | 0.829 | 0.76 | 0.386 | 0.4 | – | – | – | – | – | – | – | – | – | – | – | – | – | – | –
9 | NCI-H596 | – | – | – | – | – | 0.648 | 0.534 | 0.312 | 0.276 | 0.305 | 1.02 | 0.96 | – | 0.808 | 0.681 | 0.86 | 1.13 | – | 0.948 | 0.884
